Patent US20230127944A1, “BROAD-SPECTRUM CARBAPENEMS” (priority 2019, published 2023)
Values after ≈ are worked out from the molar mass of the structure shown.

How the values were obtained:
Format in all cases: cell-based
[1] = tested on: S. aureus ATCC 33591 (methicillin-resistant); test: broth microdilution MIC assay, S. aureus 33591; settings: Staphylococcus aureus, ATCC33591; S. aureus 33591, methicillin-resistant; read-out: MIC, S. aureus 33591
Summary of the method: (§1)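 Growth inhibition was measured by CLSI-based broth microdilution. Log-phase cultures in Mueller-Hinton broth with divalent cations were seeded at 5×10^5 CFU/mL into 2-fold serial compound dilutions and incubated 16-20 hours at 37° C before the MIC was scored by eye.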

S. aureus USA 300 = test: broth microdilution MIC assay, S. aureus USA300; settings: Staphylococcus aureus; S. aureus USA300 (MRSA); read-out: MIC, S. aureus USA300
Summary of the method: as §1

S. aureus USA 600 = test: broth microdilution MIC assay, S. aureus USA600; settings: Staphylococcus aureus; S. aureus USA600 (MRSA); read-out: MIC, S. aureus USA600
Summary of the method: as §1

[2] = tested on: E. coli ATCC 25922 (wild-type/QC strain); test: broth microdilution MIC assay, E. coli 25922; settings: Escherichia coli, ATCC25922; read-out: MIC, E. coli 25922
Summary of the method: as §1

[3] = tested on: P. aeruginosa ATCC 27853 (wild-type/QC strain); test: broth microdilution MIC assay, P. aeruginosa 27853; settings: Pseudomonas aeruginosa, ATCC27853; read-out: MIC, P. aeruginosa 27853
Summary of the method: as §1

[4] = tested on: P. aeruginosa 35151 (hyper-permeable strain); test: broth microdilution MIC assay, P. aeruginosa 35151; settings: Pseudomonas aeruginosa, read-out: MIC, P. aeruginosa 35151
Summary of the method: as §1

[5] = tested on: P. aeruginosa ΔmexAB-OprM (an efflux pump knockout); test: broth microdilution MIC assay, P. aeruginosa ΔmexAB-OprM; settings: Pseudomonas aeruginosa, read-out: MIC, P. aeruginosa ΔmexAB-OprM
Summary of the method: as §1

P. aeruginosa Paeβ-17 = test: broth microdilution MIC assay, P. aeruginosa Paeβ-17; settings: Pseudomonas aeruginosa, read-out: MIC, P. aeruginosa Paeβ-17
Summary of the method: as §1

SMILES | MIC [1] [µg/mL] | MIC (S. aureus USA 300) [µg/mL] | MIC (S. aureus USA 600) [µg/mL] | MIC [2] [µg/mL] | MIC [3] [µg/mL] | MIC [4] [µg/mL] | MIC [5] [µg/mL] | MIC (P. aeruginosa Paeβ-17) [µg/mL]
C[C@@H](O)[C@H]1C(=O)N2C(C(=O)O)=C(SC3CN(C[C@@H]4CCN(C(=N)N)C4)C3)[C@H](C)[C@H]12 [Example 39, (4R,5S,6S)-3-((1-(((S)-1-carbamimidoylpyrrolidin-3-yl)methyl)azetidin-3-yl)thio)-6-((R)-1-hydroxyethyl)-4-methyl-7-oxo-1-azabicyclo[3.2.0]hept-2-ene-2-carboxylic acid] | 8 to 32 (≈ 18.9 to 75.6 µM) | 1 to 4 (≈ 2.36 to 9.44 µM) | 1 to 4 (≈ 2.36 to 9.44 µM) | < 1 | 8 to 32 (≈ 18.9 to 75.6 µM) | 1 to 4 (≈ 2.36 to 9.44 µM) | 1 to 4 (≈ 2.36 to 9.44 µM) | > 32
C[C@@H](O)[C@H]1C(=O)N2C(C(=O)O)=C(SC3CN(CC4CCN(C)CC4)C3)[C@H](C)[C@H]12 [Example 40, (4R,5S,6S)-6-((R)-1-hydroxyethyl)-4-methyl-3-((1-((1-methylpiperidin-4-yl)methyl)azetidin-3-yl)thio)-7-oxo-1-azabicyclo[3.2.0]hept-2-ene-2-carboxylic acid] | 8 to 32 (≈ 19.5 to 78.1 µM) | 1 to 4 (≈ 2.44 to 9.77 µM) | 1 to 4 (≈ 2.44 to 9.77 µM) | < 1 | 8 to 32 (≈ 19.5 to 78.1 µM) | < 1 | 1 to 4 (≈ 2.44 to 9.77 µM) | 8 to 32 (≈ 19.5 to 78.1 µM)
C[C@@H](O)[C@H]1C(=O)N2C(C(=O)O)=C(S[C@@H]3CCN(C[C@H]4CC[C@H](CNC(=N)N)CC4)C3)[C@H](C)[C@H]12 [Example 41, (4R,5S,6S)-3-(((R)-1-(((1R,4R)-4-(guanidinomethyl)cyclohexyl)methyl)pyrrolidin-3-yl)thio)-6-((R)-1-hydroxyethyl)-4-methyl-7-oxo-1-azabicyclo[3.2.0]hept-2-ene-2-carboxylic acid] | 1 to 4 (≈ 2.08 to 8.34 µM) | 1 to 4 (≈ 2.08 to 8.34 µM) | 1 to 4 (≈ 2.08 to 8.34 µM) | < 1 | 1 to 4 (≈ 2.08 to 8.34 µM) | < 1 | 1 to 4 (≈ 2.08 to 8.34 µM) | 8 to 32 (≈ 16.7 to 66.7 µM)
C[C@@H](O)[C@H]1C(=O)N2C(C(=O)O)=C(SC3CN(C4CCN(C)CC4)C3)[C@H](C)[C@H]12 [Example 42, (4R,5S,6S)-6-((R)-1-hydroxyethyl)-4-methyl-3-((1-(1-methylpiperidin-4-yl)azetidin-3-yl)thio)-7-oxo-1-azabicyclo[3.2.0]hept-2-ene-2-carboxylic acid] | 8 to 32 (≈ 20.2 to 80.9 µM) | 1 to 4 (≈ 2.53 to 10.1 µM) | 1 to 4 (≈ 2.53 to 10.1 µM) | < 1 | 8 to 32 (≈ 20.2 to 80.9 µM) | < 1 | 8 to 32 (≈ 20.2 to 80.9 µM) | 8 to 32 (≈ 20.2 to 80.9 µM)
C[C@@H](O)[C@H]1C(=O)N2C(C(=O)O)=C(S[C@H]3C[C@@H](NC4CCN(C(=N)N)CC4)C3)[C@H](C)[C@H]12 [Example 43, (4R,5S,6S)-3-(((1S,3S)-3-((1-carbamimidoylpiperidin-4-yl)amino)cyclobutyl)thio)-6-((R)-1-hydroxyethyl)-4-methyl-7-oxo-1-azabicyclo[3.2.0]hept-2-ene-2-carboxylic acid] | 1 to 4 (≈ 2.29 to 9.14 µM) | < 1 | < 1 | < 1 | 1 to 4 (≈ 2.29 to 9.14 µM) | < 1 | 1 to 4 (≈ 2.29 to 9.14 µM) | 8 to 32 (≈ 18.3 to 73.1 µM)
C[C@@H](O)[C@H]1C(=O)N2C(C(=O)O)=C(S[C@H]3C[C@@H](NC4CCNCC4)C3)[C@H](C)[C@H]12 [Example 44, (4R,5S,6S)-6-((R)-1-hydroxyethyl)-4-methyl-7-oxo-3-(((1S,3S)-3-(piperidin-4-ylamino)cyclobutyl)thio)-1-azabicyclo[3.2.0]hept-2-ene-2-carboxylic acid] | 8 to 32 (≈ 20.2 to 80.9 µM) | 1 to 4 (≈ 2.53 to 10.1 µM) | 1 to 4 (≈ 2.53 to 10.1 µM) | < 1 | 8 to 32 (≈ 20.2 to 80.9 µM) | < 1 | 1 to 4 (≈ 2.53 to 10.1 µM) | 8 to 32 (≈ 20.2 to 80.9 µM)
C[C@@H](O)[C@H]1C(=O)N2C(C(=O)O)=C(S[C@@H]3CCN(C[C@H]4CC[C@@H](CN)CC4)C3)[C@H](C)[C@H]12 [Example 45, (4R,5S,6S)-3-(((R)-1-(((1S,4S)-4-(aminomethyl)cyclohexyl)methyl)pyrrolidin-3-yl)thio)-6-((R)-1-hydroxyethyl)-4-methyl-7-oxo-1-azabicyclo[3.2.0]hept-2-ene-2-carboxylic acid] | 1 to 4 (≈ 2.29 to 9.14 µM) | 1 to 4 (≈ 2.29 to 9.14 µM) | 1 to 4 (≈ 2.29 to 9.14 µM) | < 1 | 1 to 4 (≈ 2.29 to 9.14 µM) | < 1 | 1 to 4 (≈ 2.29 to 9.14 µM) | 8 to 32 (≈ 18.3 to 73.1 µM)
C[C@@H](O)[C@H]1C(=O)N2C(C(=O)O)=C(SC3CN(C[C@H]4CCN(C(=N)N)C4)C3)[C@H](C)[C@H]12 [Example 46, (4R,5S,6S)-3-((1-(((R)-1-carbamimidoylpyrrolidin-3-yl)methyl)azetidin-3-yl)thio)-6-((R)-1-hydroxyethyl)-4-methyl-7-oxo-1-azabicyclo[3.2.0]hept-2-ene-2-carboxylic acid] | 1 to 4 (≈ 2.36 to 9.44 µM) | 1 to 4 (≈ 2.36 to 9.44 µM) | 1 to 4 (≈ 2.36 to 9.44 µM) | < 1 | 1 to 4 (≈ 2.36 to 9.44 µM) | < 1 | 1 to 4 (≈ 2.36 to 9.44 µM) | 8 to 32 (≈ 18.9 to 75.6 µM)
CNC[C@H]1CC[C@H](CN2CC(SC3=C(C(=O)O)N4C(=O)[C@H]([C@@H](C)O)[C@H]4[C@H]3C)C2)CC1 [Example 47, (4R,5S,6S)-6-((R)-1-hydroxyethyl)-4-methyl-3-((1-(((1r,4R)-4-((methylamino)methyl)cyclohexyl)methyl)azetidin-3-yl)thio)-7-oxo-1-azabicyclo[3.2.0]hept-2-ene-2-carboxylic acid] | 1 to 4 (≈ 2.29 to 9.14 µM) | 1 to 4 (≈ 2.29 to 9.14 µM) | 1 to 4 (≈ 2.29 to 9.14 µM) | < 1 | 1 to 4 (≈ 2.29 to 9.14 µM) | < 1 | 1 to 4 (≈ 2.29 to 9.14 µM) | 8 to 32 (≈ 18.3 to 73.1 µM)
C[C@@H](O)[C@H]1C(=O)N2C(C(=O)O)=C(S[C@H]3C[C@H](NC4CCN(C(=N)N)CC4)C3)[C@H](C)[C@H]12 [Example 48, (4R,5S,6S)-3-(((1R,3R)-3-((1-carbamimidoylpiperidin-4-yl)amino)cyclobutyl)thio)-6-((R)-1-hydroxyethyl)-4-methyl-7-oxo-1-azabicyclo[3.2.0]hept-2-ene-2-carboxylic acid] | 8 to 32 (≈ 18.3 to 73.1 µM) | 1 to 4 (≈ 2.29 to 9.14 µM) | 1 to 4 (≈ 2.29 to 9.14 µM) | < 1 | 8 to 32 (≈ 18.3 to 73.1 µM) | < 1 | 1 to 4 (≈ 2.29 to 9.14 µM) | 8 to 32 (≈ 18.3 to 73.1 µM)
C[C@@H](O)[C@H]1C(=O)N2C(C(=O)O)=C(S[C@@H]3CC[C@H](NC4CCN(C(=N)N)CC4)C3)[C@H](C)[C@H]12 [Example 49, (4R,5S,6S)-3-(((1R,3S)-3-((1-carbamimidoylpiperidin-4-yl)amino)cyclopentyl)thio)-6-((R)-1-hydroxyethyl)-4-methyl-7-oxo-1-azabicyclo[3.2.0]hept-2-ene-2-carboxylic acid] | 1 to 4 (≈ 2.21 to 8.86 µM) | 1 to 4 (≈ 2.21 to 8.86 µM) | 1 to 4 (≈ 2.21 to 8.86 µM) | < 1 | 1 to 4 (≈ 2.21 to 8.86 µM) | < 1 | 1 to 4 (≈ 2.21 to 8.86 µM) | 8 to 32 (≈ 17.7 to 70.9 µM)
C[C@@H](O)[C@H]1C(=O)N2C(C(=O)O)=C(S[C@@H]3CC[C@H](NC4CCNCC4)C3)[C@H](C)[C@H]12 [Example 50, (4R,5S,6S)-6-((R)-1-hydroxyethyl)-4-methyl-7-oxo-3-(((1R,3S)-3-(piperidin-4-ylamino)cyclopentyl)thio)-1-azabicyclo[3.2.0]hept-2-ene-2-carboxylic acid] | 1 to 4 (≈ 2.44 to 9.77 µM) | 1 to 4 (≈ 2.44 to 9.77 µM) | 1 to 4 (≈ 2.44 to 9.77 µM) | < 1 | 8 to 32 (≈ 19.5 to 78.1 µM) | < 1 | 1 to 4 (≈ 2.44 to 9.77 µM) | 8 to 32 (≈ 19.5 to 78.1 µM)
C[C@@H](O)[C@H]1C(=O)N2C(C(=O)O)=C(S[C@H]3C[C@@H](N[C@H]4CC[C@@H](NC(=N)N)CC4)C3)[C@H](C)[C@H]12 [Example 51, (4R,5S,6S)-3-(((1S,3S)-3-(((1S,4R)-4-guanidinocyclohexyl)amino)cyclobutyl)thio)-6-((R)-1-hydroxyethyl)-4-methyl-7-oxo-1-azabicyclo[3.2.0]hept-2-ene-2-carboxylic acid] | 1 to 4 (≈ 2.21 to 8.86 µM) | < 1 | 1 to 4 (≈ 2.21 to 8.86 µM) | < 1 | 1 to 4 (≈ 2.21 to 8.86 µM) | < 1 | 1 to 4 (≈ 2.21 to 8.86 µM) | 8 to 32 (≈ 17.7 to 70.9 µM)
C[C@@H](O)[C@H]1C(=O)N2C(C(=O)O)=C(S[C@H]3C[C@@H](N[C@H]4CC[C@H](NC(=N)N)CC4)C3)[C@H](C)[C@H]12 [Example 52, (4R,5S,6S)-3-(((1S,3S)-3-(((1R,4S)-4-guanidinocyclohexyl)amino)cyclobutyl)thio)-6-((R)-1-hydroxyethyl)-4-methyl-7-oxo-1-azabicyclo[3.2.0]hept-2-ene-2-carboxylic acid] | 1 to 4 (≈ 2.21 to 8.86 µM) | 1 to 4 (≈ 2.21 to 8.86 µM) | < 1 | < 1 | 1 to 4 (≈ 2.21 to 8.86 µM) | < 1 | 1 to 4 (≈ 2.21 to 8.86 µM) | 8 to 32 (≈ 17.7 to 70.9 µM)
C[C@@H](O)[C@H]1C(=O)N2C(C(=O)O)=C(S[C@@H]3CC[C@@H](NC4CCNCC4)C3)[C@H](C)[C@H]12 [Example 53, (4R,5S,6S)-6-((R)-1-hydroxyethyl)-4-methyl-7-oxo-3-(((1R,3R)-3-(piperidin-4-ylamino)cyclopentyl)thio)-1-azabicyclo[3.2.0]hept-2-ene-2-carboxylic acid] | 8 to 32 (≈ 19.5 to 78.1 µM) | 1 to 4 (≈ 2.44 to 9.77 µM) | 1 to 4 (≈ 2.44 to 9.77 µM) | < 1 | 8 to 32 (≈ 19.5 to 78.1 µM) | < 1 | 1 to 4 (≈ 2.44 to 9.77 µM) | 8 to 32 (≈ 19.5 to 78.1 µM)
